Laboratory results reported in US9938232B2, “LED photoinitiators” (SUN CHEMICAL CORPORATION, priority 2014, dated 2018).
Each block holds one molecule with its values, some of them ahead of it.

Key:
[1] = Solubility in multifunctional acrylates; type: physicochemical; settings: 10 and 20 weight % in PPTTA, TMPTA and EO-TMPTA, stirred 10 minutes at 45° C.
Experimental: • Mn: 1050 Da, Mw 1360 Da • IR: v [cm-1]: 3318, 2930, 2861, 1716 (s), 1641, 1590 (vs), 1525, 1450, 1364, 1284, 1228, 1146, 1068, 927, 826, 770 Solubility: • The product as obtained according to Example 10 was added to different multifunctional acrylates to check solubility. Propoxylated pentaerythritol tetraacrylate (SR 494 LM, Sartomer company) (PPTTA), trimethylol propane triacrylate (SR 351M, Sartomer company) (TMPTA) and ethoxylated trimethylol propane triacrylate (Ebecryl LEO 10501, Allnex company) (EO-TMPTA) were used. The compound of example 10 was added in amounts of 10 and 20 weight % to each of the acrylates and stirred for 10 minutes at 45° C. In all cases (even at 20 weight %), clear, intense yellow, transparent mixtures were obtained.

UV-spectra measurement = type: physicochemical
Experimental: Spectra were acquired using a Unicam UV-2 UV/VIS spectro-photometer. All absorption spectra were obtained using 1 cm cuvettes, scanning within the 200-800 nm range. Solutions were prepared in a 100 cm^3 volumetric flask, and, if required, subsequently diluted so that a maximum absorbance of less than 2 was obtained. From the absorption the molar extinction coefficient e was calculated in liter*mol^−1*cm^−1.

[2] = Solubility in water and organic solvents (observation); type: physicochemical
Experimental: After cooling, the pH of the solution was adjusted to 4 with about 100 ml of a 50 wt % aqueous solution of acetic acid to precipitate a yellow solid. The solid was collected by filtration and dissolved in a saturated aqueous solution (100 ml) of sodium carbonate. Insoluble material was removed by filtration and the pH of the filtrate was adjusted to 5 to 6 with aqueous acetic acid to precipitate a yellow solid. The solid was collected by filtration and re-crystallized from 130 ml ethanol.

Solubility in multifunctional acrylates [1]: very good solubility
Structure (SMILES): CCCCOCC(COC(=O)c1cc(N(C)C)ccc1C(=O)c1ccc(N(C)C)cc1)OC(=O)NCCCCCCNC(=O)OC(COCCCC)COC(=O)c1cc(N(C)C)ccc1C(=O)c1ccc(N(C)C)cc1 (stereo not shown) [Example 10]

Structure (SMILES): CN(C)c1ccc(C(=O)c2ccc(N(C)C)cc2C(=O)[O-])cc1.[K+] [Example 6, 5-(dimethylamino)-2-[4-(dimethylamino)benzoyl]-benzoic acid potassium salt]
UV-spectroscopy: λmax (H2O) (UV-spectra measurement; in H2O): 365 nm
Molar extinction coefficient (UV-spectra measurement; in water): 36192 L/mol/cm
Solubility in methylene chloride ([2]; methylene chloride): limited solubility in methylene chloride
Solubility in water ([2]; water): good solubility in water

Structure (SMILES): CN(C)c1ccc(C(=O)c2ccc(N(C)C)cc2C(=O)O)cc1 [Example 2, 5-(dimethylamino)-2-[4-(dimethylamino)benzoyl]-benzoic acid]
Solubility in DMSO ([2]; DMSO): soluble in DMSO
melting point: 269 to 272 °C
